Tests used:
Sprague-Dawley Rats [1] = test: Fear memory renewal test, NAC administered one day before the renewal test; format: in vivo; details: NAC 200 mg/kg peritoneally on the 7th day after 4 days of extinction training, result on the 9th day after fear conditioning, vs control
Method: Sprague-Dawley Rats (8-9 weeks old, from Samtaco, Korea) were maintained with free access to water and food with 12 hour dark/light cycles (lights off at 09:00 hrs). Group of three to six animals were used for each experiment. (26 in total) For fear conditioning, the rats were presented with a tone (2.8 kHz, 85 dB) co-terminating with an electrical shock (1.0 mA, 1 s) three times at an interval of 100 sec. The rats were returned to the cage 1 minute after the last shock has been applied. Three days after the conditioning, the exposure therapy was done in a chamber distinct from the conditioning chamber for both extinction training and tone tests. 10 tones were presented at an interval of 100 sec without shocks, during which the freezing responses were measured to determine the reduction of fear memories. Unpaired, two-tailed T-test was used to analyze the results. The renewal test was done on day 12 after the conditioning was completed. The same chamber and place as it was used for the fear conditioning were used for the renewal. The rats with the extinction training were placed in the conditioning chamber and were left undisturbed for 10 minutes. Then the fear memory was recalled by presenting the rats with a tone for 30 sec. […] The freezing was defined as immobility except for respiratory movements and was quantified by trained observers who were blind to the experimental groups. […]

Sprague-Dawley Rats [2] = test: Fear memory renewal test, NAC administered immediately before the renewal test; format: in vivo; details: NAC 200 mg/kg peritoneally 2.5 hours before the renewal test on the 7th and 8th day, result on the 8th day after fear conditioning, vs control
Method: Sprague-Dawley Rats (8-9 weeks old, from Samtaco, Korea) were maintained with free access to water and food with 12 hour dark/light cycles (lights off at 09:00 hrs). Group of three to six animals were used for each experiment. (26 in total) For fear conditioning, the rats were presented with a tone (2.8 kHz, 85 dB) co-terminating with an electrical shock (1.0 mA, 1 s) three times at an interval of 100 sec. The rats were returned to the cage 1 minute after the last shock has been applied. Three days after the conditioning, the exposure therapy was done in a chamber distinct from the conditioning chamber for both extinction training and tone tests. 10 tones were presented at an interval of 100 sec without shocks, during which the freezing responses were measured to determine the reduction of fear memories. Unpaired, two-tailed T-test was used to analyze the results. The renewal test was done on day 12 after the conditioning was completed. The same chamber and place as it was used for the fear conditioning were used for the renewal. […] The fear memory recalled was determined by measuring the freezing response as described before (Kim et al., 2007, PNAS 104 (52): 20955-960). The freezing was defined as immobility except for respiratory movements and was quantified by trained observers who were blind to the experimental groups. […]

[3] = general statement, no test described; cited from earlier work
[4] = cited from earlier work
Sprague-Dawley Rats [5] = test: Fear memory renewal test, NAC administered during extinction training (exposure therapy); format: in vivo; details: NAC 200 mg/kg peritoneally once a day, days 3 to 5 after conditioning, 2.5 hours before exposure therapy, renewal tests on day 12 and day 21, vs saline control
Method: Sprague-Dawley Rats (8-9 weeks old, from Samtaco, Korea) were maintained with free access to water and food with 12 hour dark/light cycles (lights off at 09:00 hrs). Group of three to six animals were used for each experiment. (26 in total) For fear conditioning, the rats were presented with a tone (2.8 kHz, 85 dB) co-terminating with an electrical shock (1.0 mA, 1 s) three times at an interval of 100 sec. The rats were returned to the cage 1 minute after the last shock has been applied. Three days after the conditioning, the exposure therapy was done in a chamber distinct from the conditioning chamber for both extinction training and tone tests. 10 tones were presented at an interval of 100 sec without shocks, during which the freezing responses were measured to determine the reduction of fear memories. Unpaired, two-tailed T-test was used to analyze the results. […] The negative control was only received physiological saline. The renewal test was done on day 12 after the conditioning was completed. The same chamber and place as it was used for the fear conditioning were used for the renewal. […] The fear memory recalled was determined by measuring the freezing response as described before (Kim et al., 2007, PNAS 104 (52): 20955-960). The freezing was defined as immobility except for respiratory movements and was quantified by trained observers who were blind to the experimental groups. […]

Q: For `CC(=O)N[C@@H](CS)C(=O)O` [NAC, N-acetyl-L-cysteine], which “renewal of the fear memory (freezing response)” value (“renewal … (freezing response)” below) (Sprague-Dawley Rats [1]; FIG. 4) is on record?
A: the renewal of the fear memory was blocked

Q: And the “renewal … (freezing response)” value (Sprague-Dawley Rats [1]; FIG. 4, listed as N-Acetyl-L-cysteine)?
A: the return of fear-memories was prevented

Q: And the “renewal … (freezing response)” value (Sprague-Dawley Rats [2]; FIG. 6)?
A: the renewal of the fear memory was blocked

Q: What about the “renewal … (freezing response)” value (Sprague-Dawley Rats [2]; FIG. 6, listed as N-Acetyl-L-cysteine) of the same compound?
A: prevented the return of fear-memories

Q: And the blood-brain barrier penetration [3]?
A: penetrate a blood-brain barrier

Q: And the pKa [4]?
A: 3.24

Q: What about the “renewal … (freezing response)” value (Sprague-Dawley Rats [5]; FIG. 2) of the same compound?
A: the renewal of the fear memory was blocked

Q: What about the “renewal … (freezing response)” value (Sprague-Dawley Rats [5]; FIG. 2, listed as N-Acetyl-L-cysteine) of the same compound?
A: the return of fear-memories was prevented and the effect was long-lasted

— patent US9433596B2, “Pharmaceutical composition comprising N-acetyl-L-cysteine or its derivatives for treating anxiety disorder” (SNU R&DB FOUNDATION, priority 2010, dated 2016)
